PMC11054274, “Dual Antitubercular and Antileishmanial Profiles of Quinoxaline Di-N-Oxides Containing an Amino Acidic Side Chain” (Pharmaceuticals, 2024)
Where two headings read alike, the source gives them in different places.

Columns and labels:
[1] = system: Leishmania amazonensis promastigotes; assay: Promastigote susceptibility assay (resazurin), L. amazonensis; assay type: cell-based
Experimental: (§1) The following species of Leishmania were used: L. donovani (MHOM/IN/80/DD8), which was purchased (ATCC, Manassas, VA, USA), and L. amazonensis (MHOM/Br/79/Maria), which was kindly provided by Prof. Alfredo Toraño (Instituto de Salud Carlos III, Madrid, Spain). Promastigotes were cultured in Schneider’s Insect Medium supplemented with 10% heat-inactivated Fetal Bovine Serum (FBS) (SIGMA-Merck, Madrid, Spain) and 1000 U/L of penicillin plus 100 mg/L of streptomycin in 25 mL culture flasks at 26 °C.
(§2) The activity of the compounds on Leishmania promastigotes was performed according to the method previously reported by us. Briefly, promastigotes (2.5 × 10^5 parasites/well) were cultured in 96-well plastic plates. The compounds were dissolved in dimethylsulfoxide (DMSO). Serial dilutions at 1:2 of the test compounds in fresh culture medium were performed (100, 50, 25, 12.5, 6.25, 3.12, 1.56 and 0.78 µg/mL) in a final volume of 200 µL; the solutions were then added to the parasite suspension. After an incubation period of 48 h at 26 °C, a volume of 20 μL of 2.5 mM resazurin solution in PBS was added and the plates were incubated for 3 h under the same conditions. Finally, the Relative Fluorescence Unit (RFU) (535ex–590em nm wavelength) was determined in a fluorimeter (Infinite 200 Tecan i-Control). Growth inhibition (%) was calculated by 100—[(RFU treated wells—RFU signal-to-noise)/(RFU untreated—RFU signal-to-noise) × 100]. All tests were carried out in triplicate and the IC50 was calculated by probit analysis using SPSS 17.0 Statistics Software. Miltefosine (Sigma-Merck, Madrid, Spain) was used as the reference drug.

[2] = system: Leishmania donovani promastigotes; assay: Promastigote susceptibility assay (resazurin), L. donovani; assay type: cell-based; conditions: for IC50: Table S2, promastigotes, 48 h
Experimental: as §1, §2

[3] = system: Leishmania donovani amastigotes; assay: Intracellular amastigote assay in J774 macrophages, L. donovani; assay type: cell-based; conditions: for IC50: Table S3, intracellular amastigotes, 48 h
Experimental: (§3) We performed an intracellular amastigote assay on L. amazonensis and L. donovani according to a fluorometric method reported by us. To carry out the in vitro macrophage infections, 5 × 10^4 cells were cultured in RPMI-1640 medium and then were infected with 5 × 10^5 promastigotes. In the L. donovani assays, the plates were incubated for 48 h at 37 °C, while in the L. amazonensis assays, they were incubated at 33 °C for the first 24 h and then the temperature was increased to 37 °C for the next 24 h. After, the culture medium was removed and the cells were washed with buffered RPMI-HEPES at pH 7.4 several times in order to eliminate the non-internalized promastigotes. A total of 100 µL of fresh medium tempered at 37 °C was added to the infected cells, which then were exposed to 100 µL of the test compounds in RPMI-1640 at different concentrations (100, 50, 25, 12.5, 6.25, 3.12, 1.56 and 0.78 µg/mL in a final volume of 200 µL) for 48 h at 37 °C. The culture medium was removed by centrifugation at 3500 rpm for 5 min (Centrifuge 5403 Eppendorf) and a lysis solution (0.02% sodium dodecyl sulfate in RPMI-HEPES) was added. After 20 min, the treated cells were harvested (centrifugation at 3500 rpm for 5 min at 4 °C) and the supernatants were replaced by 200 μL of fresh Schneider’s culture medium. The plates were then incubated at 26 °C for another 3 days to allow for the transformation of viable amastigotes into promastigotes and proliferation. Afterwards, 20 μL/well of 2.5 mM resazurin was added and incubated for another 3 h. Finally, URF was measured and IC50 was estimated as described above. All tests were carried out in triplicate. Miltefosine was used as the reference drug.

[4] = system: Mycobacterium tuberculosis H37Rv; assay: In vitro activity against Mycobacterium tuberculosis H37Rv, microdilution AlamarBlue broth assay (BacTiter-Glo alternative read-out); assay type: cell-based; conditions: Table S1, Mtb H37Rv; for IC50: read-out: IC50, antibacterial activity against Mtb H37Rv; for IC90: read-out: IC90, antibacterial activity against Mtb H37Rv
[5] = system: Leishmania amazonensis amastigotes; assay: Intracellular amastigote assay in J774 macrophages, L. amazonensis; assay type: cell-based; conditions: for L. amazonensis amastigote selectivity index (SI): SI = CC50 (J774 macrophages)/IC50
Experimental: as §3

[6] = Cytotoxicity assay on macrophages (resazurin); assay type: cell-based, murine; conditions: mouse, J774 macrophages, 24 h exposure, read-out: Toxicity against J774 macrophages CC50
Experimental: (§4) J774 murine macrophages were grown in RPMI-1640 medium (Sigma) supplemented with 10% heat-inactivated FBS (30 min at 56 °C) (SIGMA-Merck), penicillin G (100 U/mL) and streptomycin (100 µg/mL). For the experiments, cells in the pre-confluence phase were harvested with trypsin. Cell cultures were maintained at 37 °C in a humidified environment with 5% CO2.
(§5) Cell viability was evaluated using a modification with resazurin of the colorimetric method described previously. J774 macrophages were seeded (5 × 10^4 cells/well) in 96-well flat-bottom microplates with 100 µL of RPMI-1640 medium. The cells were allowed to adhere for 4 h at 37 °C in 5% CO2, then different concentrations of the test compounds in 100 µL of the medium were added and exposed for 24 h. Growth controls were also included. To evaluate cell viability, 20 µL of a 2.5 mM resazurin solution was added and the plates were returned to the incubator for another 3 h. The reduction in resazurin was determined by measuring the fluorescence intensity (excitation wavelength, 535 nm; emission wavelength, 590 nm). Each concentration was assayed three times. The medium and controls were used in each test as blanks. The cytotoxic effect of the compounds was defined as the 50% reduction in cell viability of treated culture cells with respect to the untreated culture (CC50).

J774 murine macrophages = assay: Cytotoxicity assay on macrophages (resazurin); assay type: cell-based; conditions: 24 h exposure, read-out: Toxicity against J774 macrophages CC50
Experimental: as §4, §5

[7] = Table S2, promastigotes, 48 h, read-out: L. amazonensis IC50 (promastigote)
[8] = Table S3, intracellular amastigotes, 48 h, read-out: L. amazonensis IC50 (amastigote)
[9] = SI = CC50 (J774 macrophages)/IC50
[10] = read-out: IC50 against L. amazonensis amastigotes

Row | Compound | IC50 [1, 7] [µM] | IC50 [2] [µM] | IC50 [3] [µM] | IC50 [4] [µM] | IC90 [4] [µM] | IC50 [5, 8] [µM] | CC50 (J774 murine macrophages; Table S2) [µM] | IC50 [5, 10] [µM] | CC50 (J774 murine macrophages; Table S3) [µM] | other results
1 | COC(=O)CNC(=O)c1c(-c2cccc(Cl)c2)[n+]([O-])c2cc(OC)ccc2[n+]1[O-] [Compound 4g, N-(6-Methoxy-1,4-dioxide-3-(3-chlorophenyl)quinoxaline-2-carbonyl)glycine methyl ester] | 112 ± 13.7 | 40 ± 6.7 | 77.5 ± 6.2 | 50 | 71.9 | 23.2 ± 4.1 | – | – | – | –
2 | CCCCCCCCCCCCCCCCOP(=O)([O-])OCC[N+](C)(C)C [Miltefosine, reference compound] | – | – | – | – | – | – | – | – | – | IC50 ([1]; Leishmania amazonensis, read-out: IC50 against L. amazonensis (promastigote)): 47.9 µM; L. amazonensis promastigote selectivity index (SI) [1, 9]: 2.8; CC50 at 24 h ([6]; Table S2): 136 ± 10.3 µM; CC50 at 24 h ([6]; Table S3): 136 µM; IC50 ([2]; Leishmania donovani): 0.2 ± 0.02 µM; L. donovani promastigote selectivity index (SI) [2, 9]: 680.5; IC50 ([3]; Leishmania donovani, J774): 7.1 µM; L. donovani amastigote selectivity index (SI) [3, 9]: 19.1; IC50 ([5]; Leishmania amazonensis, J774, Table S3, intracellular amastigotes, 48 h, read-out: L. amazonensis IC50 (amastigote)): 47.6 ± 7.4 µM; IC50 ([5]; Leishmania amazonensis, J774, read-out: IC50 against L. amazonensis amastigotes): 136 µM; L. amazonensis amastigote selectivity index (SI) [5]: 2.9; L. amazonensis amastigote selectivity index (SI) ([5]; listed as miltefosine): 2.87
3 | N-(6-Methoxy-1,4-dioxide-3-(4-florophenyl)quinoxaline-2-carbonyl)glycine methyl ester [Compound 4i] | 117 ± 8 | 46.9 ± 14.2 | 71 ± 11 | 47.2 | 66.5 | 12.9 ± 1.7 | 379 ± 49.9 | – | – | –
4 | COC(=O)CNC(=O)c1c(-c2ccccc2C)[n+]([O-])c2cc(OC)ccc2[n+]1[O-] [Compound 4k, N-(6-Methoxy-1,4-dioxide-3-(2-methylphenyl)quinoxaline-2-carbonyl)glycine methyl ester] | 117 ± 14.3 | 23.9 ± 2.2 | 72.2 ± 18.6 | 25.9 | 44.6 | – | 330 ± 75.5 | 7.2 | – | –
5 | COC(=O)CNC(=O)c1c(-c2ccc(F)cc2)[n+]([O-])c2cc(C)ccc2[n+]1[O-] [Compound 4m, N-(6-Methyl-1,4-dioxide-3-(4-fluorophenyl)-quinoxaline-2-carbonyl)glycine methyl ester] | 62.8 ± 1.6 | 84.8 ± 8.9 | 285 ± 115 | 18.3 | 36.5 | – | 454 | 74.4 | 454 | –
6 | N-(6-Methoxy-1,4-dioxide-3-(4-trifloromethylphenyl)quinoxaline-2-carbonyl)glycine methyl ester [Compound 4h] | 122 ± 9.9 | 25.3 ± 1.55 | 39.5 ± 7.5 | 8.46 | 12.4 | 20.9 ± 4 | 554 | – | 554 | –
7 | N-(1,4-Dioxide-3-((4-fluorophenyl)quinoxaline-2-carbonyl)glycine methyl ester [Compound 4d] | 125 ± 1.43 | 165 ± 10.2 | 234 ± 5.9 | 28.6 | 47.7 | – | 539 | 9.8 | 539 | –
